Marks after values point to notes of the source that are not given here.
Assays:
male Wistar rats [1] = experiment: Hot-plate test: onset of habituation to the analgesic action of morphine; type: in vivo; conditions: for mean latency: after 15 days of daily morphine, substance 100 mg/kg i.p., morphine 10 mg/kg i.p., plate 51°C
Method: Morphine addiction was induced in the rats by daily injections for a period of 15 days.
Five different groups of animals also received saline solution, VCGB, GHB, LAC or VC (100 mg/kg i.p.), respectively.

male Wistar rats [2] = experiment: Withdrawal syndrome due to naloxone administration in morphine-treated rats; type: in vivo; conditions: morphine for 10 days; for Weight loss: mean loss of body weight 1 hour after naloxone injection (1 mg/kg subcutaneous); for Latency of stereotype jumps: then naloxone 1 mg/kg subcutaneous, cut-off time 900 sec.
Method: After repeated treatment with morphine for a period of 10 days, the rats were all weighed and administered naloxone (1 mg/kg dissolved in saline solution) by subcutaneous injection. The resulting withdrawal syndrome was assessed by measuring the latency of onset of "stereotype jumps" from a circular platform measuring 35 cm in diameter and 70 cm in height. A cut-off time of 900 sec. was used. In 5 groups of animals, naloxone administration was combined with administration of saline, VCGB, GHB, LAC and VC, respectively.
The body weight of the animals was then measured again 1 hour after naloxone injection and the mean loss of body weight was calculated for each group of animals treated.

male Wistar rats [3] = experiment: Heroin self-administration behaviour in rats; conditions: 100 mg/kg daily intraperitoneal; for number of heroin self-administrations: in the space of 3 hours

O=C(O)CCCO [GHB, gamma-hydroxybutyric acid]
mean latency (male Wistar rats [1]; T 0): 5.5 s
mean latency (male Wistar rats [1]; T 30): 13.0* sec.
mean latency (male Wistar rats [1]; T 240): 6.0 s
Weight loss (male Wistar rats [2]): 15.5 ± 0.6 g
Latency of stereotype jumps (male Wistar rats [2]): 451 ± 63 s
number of heroin self-administrations (male Wistar rats [3]; 3rd day): 7.5 ± 0.6
number of heroin self-administrations (male Wistar rats [3]; 4th day): 8.0 ± 0.7
number of heroin self-administrations (male Wistar rats [3]; 5th day): 9.0 ± 0.6

CC(=O)OC(CC(=O)[O-])C[N+](C)(C)C [LAC, acetyl L-carnitine]
mean latency (male Wistar rats [1]; T 0): 6.0 s
mean latency (male Wistar rats [1]; T 30): 10.0* sec.
mean latency (male Wistar rats [1]; T 240): 6.0 s
Weight loss (male Wistar rats [2]): 18.6 ± 2.1 g
Latency of stereotype jumps (male Wistar rats [2]): 465 ± 99 s
number of heroin self-administrations (male Wistar rats [3]; 3rd day): 7.0 ± 0.5
number of heroin self-administrations (male Wistar rats [3]; 4th day): 9.2 ± 0.5
number of heroin self-administrations (male Wistar rats [3]; 5th day): 8.9 ± 0.8

CC(C)CC(=O)O[C@H](CC(=O)OCCCC(=O)[O-])C[N+](C)(C)C [VCGB, isovaleryl L-carnitine gamma-hydroxybutyrate]
mean latency (male Wistar rats [1]; T 0): 6.5 s
mean latency (male Wistar rats [1]; T 30): 14.0* sec.
mean latency (male Wistar rats [1]; T 240): 10.0* sec.
effect on habituation to morphine-induced analgesia (in words) (male Wistar rats [1]; summary of the table, 100 mg/kg i.p.): reduce habituation to morphine-induced analgesia to an appreciable extent
Weight loss (male Wistar rats [2]): 12.3 ± 0.6 g
Latency of stereotype jumps (male Wistar rats [2]): 564 ± 69 s
number of heroin self-administrations (male Wistar rats [3]; 3rd day): 6.3 ± 0.5
number of heroin self-administrations (male Wistar rats [3]; 4th day): 6.8 ± 0.4
number of heroin self-administrations (male Wistar rats [3]; 5th day): 6.3 ± 0.5
effect on number of heroin self-administrations (in words) (male Wistar rats [3]; summary of the table): very long-lasting action in reducing the number of self-administrations

CC(C)CC(=O)O[C@H](CC(=O)[O-])C[N+](C)(C)C [VC, isovaleryl L-carnitine]
mean latency (male Wistar rats [1]; T 0): 6.0 s
mean latency (male Wistar rats [1]; T 30): 10.0* sec.
mean latency (male Wistar rats [1]; T 240): 6.0 s
Weight loss (male Wistar rats [2]): 16.6 ± 2.1 g
Latency of stereotype jumps (male Wistar rats [2]): 480 ± 99 s
number of heroin self-administrations (male Wistar rats [3]; 3rd day): 7.2 ± 0.5
number of heroin self-administrations (male Wistar rats [3]; 4th day): 9.5 ± 0.5
number of heroin self-administrations (male Wistar rats [3]; 5th day): 8.8 ± 0.5

From patent EP0630648A1, “Use of acyl L-carnitine gamma-hydroxybutyrate for the treatment of drug addiction” (Sigma-Tau Industrie Farmaceutiche Riunite S.p.A., priority 1993, dated 1994)
